How the values were obtained:
[1] = system: FaDu and A549 ATM KO cells; assay: Colony formation assay, olaparib, ATM KO versus WT isogenic pairs; assay type: cell-based, human; settings: olaparib single agent
Description: (§1) Graphs represent percentage viable cells ± SD following 7 days' treatment relative to DMSO vehicle-treated controls from one representative experiment of at least three independent experiments. […] Mean pGI50 (-log [GI50]) ± SEM, geometric mean GI50, number of experimental repeats (n) and 95% confidence interval are described. C) Colony formation assay was performed on FaDu and A549 ATM KO and WT cells treated with increasing concentrations of olaparib. Graphs represent percentage surviving fraction of colonies ± SD following 10- 14 days' treatment relative to DMSO vehicle-treated control from one representative experiment of three independent experiments. […] Optimized image algorithms were used to evaluate phenotypic response s using nuclear staining with Hoechst (cell cycle, micronuclei, nuclear fragmentation ), as well as to quantify the response of DNA damage response markers (foci numbers and total signal […] SDS-PAGE and Western blotting of samples Protein lysates were generated by scraping cells in radioimmunoprecipitation assay […] and protease and phosphatase inhibitor tablets (Roche) following compound treatments at indicated time points. Protein concentration was determined using the BCA protein assay kit (ThermoFisher). Proteins were separated by SDS -PAGE on NuPAGE® 4-12% […] membranes using the iBlot ® dry blotting system (ThermoFisher). […]

HBCx-17 TNBC PDX = assay: PDX efficacy study; assay type: in vivo, mice; settings: olaparib 100 mg kg−1 qd single agent
Description: (§2) Immunocompromised SCID (C.B-17/IcrHan®Hsd-Prkdc^scid) or Hsd:Athymic Nude-Foxn1^nu female mice (Envigo) were used for tumour implantation. […] When dosed twice daily, the time between the morning and evening doses was 8 h. Targeted irradiation of 2 Gy was delivered over 2 min daily over the first 5 days of treatment. Liposomal doxorubicin (Doxoves) was diluted in physiological saline and intravenously dosed at 2.5 or 5 mg kg^−1 once per week. Olaparib was formulated in 10% DMSO/30% Kleptose and orally dosed at 100 mg kg^−1 once daily. […] Statistical significance was evaluated using a one-tailed t-test. All in vivo studies complied with all relevant ethical regulations for animal testing and research, followed AstraZeneca’s global bioethics policy and received ethical approval from the AstraZeneca ethical committee. HBCx-17 PDX study was carried out at XenTech, France in accordance with French regulatory legislation concerning the protection of laboratory animals. CTG-703, CTG-0828 and CTG-0149 PDX studies were carried out at Champions Oncology, Inc., USA in accordance to the guidelines of the Institutional Animal Care and Use Committee (IACUC) of Champions Oncology and the USA regulatory legislation. CDX and OV2022 PDX studies were conducted in the UK in accordance with UK Home Office legislation, the Animal Scientific Procedures Act 1986 and the Home Office project licences 70/8839, 70/8894 and P0EC1FFDF. […]
(§3) SCID mice were surgically implanted subcutaneously with tumour fragments from donor mice. Tumours were measured (length x width) by bilateral Vernier calliper measurements and tumour volume calculated using Mousetrap software. Mice were randomized into […]
treatment groups when mean tumour volume reached ~0.2 cm 3.

FaDu ATM KO xenografts = assay: Xenograft efficacy study with olaparib; assay type: in vivo, mice; settings: continuous olaparib 100 mg kg−1 qd single agent
Description: Immunocompromised SCID (C.B-17/IcrHan®Hsd-Prkdc^scid) or Hsd:Athymic Nude-Foxn1^nu female mice (Envigo) were used for tumour implantation. […] When dosed twice daily, the time between the morning and evening doses was 8 h. Targeted irradiation of 2 Gy was delivered over 2 min daily over the first 5 days of treatment. Liposomal doxorubicin (Doxoves) was diluted in physiological saline and intravenously dosed at 2.5 or 5 mg kg^−1 once per week. Olaparib was formulated in 10% DMSO/30% Kleptose and orally dosed at 100 mg kg^−1 once daily. […] Statistical significance was evaluated using a one-tailed t-test. […]
Tumours were measured (length x width) by bilateral Vernier calliper measurements and tumour volume calculated using Mousetrap software. […]
HPMC/T. Tumour growth inhibition from start of treatment was assessed by co mparison of the mean change in tumour volume for the control and treated groups, using the Mousetrap application and represented as tumour growth inhibition (TGI). Statistical significance was evaluated using a one-tailed t-test. […]
was prepared using an appropriate dilution factor and compared against an 11-point standard calibration curve (1–10,000 nM) prepared in DMSO and spiked into bl ank plasma. […] Supernatant (50 µL) was then diluted in 300 µL water and analysed with ultra-performance liquid chromatography–tandem mass […]

FaDu ATM KO cells = assay: Clonogenic survival (colony formation assay); assay type: cell-based; settings: Homo sapiens
Description: as §1

OV2022 ovarian PDX = assay: PDX efficacy study; assay type: in vivo, mice; settings: olaparib single agent
Description: as §2, §3
(§4) treatment groups when mean tumour volume reached ~0.2 cm 3. AZD7648 was formulated in 0.5% hydroxypropyl methylcellulose (HPMC)/0.1% Tween80 (HPMC/T) and orally dosed (4–100 mg/kg). When dosed twice daily (bid), the time between the morning and evening doses was 8 hours. Targeted irradiation of 2 Gy was delivered over 2 minutes daily over the first 5 days of treatment. Liposomal doxorubicin (Doxoves) was diluted in physiological saline and intravenously dosed at 2.5 or 5 mg/kg once per week. Olaparib was formulated in 10% DMSO/30% Kleptose and orally dosed at 100 mg/kg once daily.
(§5) HPMC/T. Tumour growth inhibition from start of treatment was assessed by co mparison of the mean change in tumour volume for the control and treated groups, using the Mousetrap application and represented as tumour growth inhibition (TGI). Statistical significance was evaluated using a one-tailed t-test. HBCx-17 PDX study was carried out at XenTech, France in accordance with French regulatory legislation concerning the protection of laboratory animals. CTG-703, CTG-0828 and CTG-0149 PDX studies were carried out at Champions Oncology, Inc., USA in accordance to the guidelines of the Institutional Animal Care and Use Committee (IACUC) of Champions Oncology and the USA regulatory legislation. CDX and OV2022 PDX studies were conducted in the UK in accordance with UK Home Office legislation, the Animal Scientific Procedures Act 1986, and AstraZeneca’s global bioethics policy. Experimental details are outlined in Home […]
(§6) Blood samples were taken via venipuncture of the tail vein. Whole blood was mixed 1: 5 with PBS and centrifuged at 1500g for 3 minutes at 4°C, and the plasma was extracted […]
(§7) was prepared using an appropriate dilution factor and compared against an 11-point standard calibration curve (1–10,000 nM) prepared in DMSO and spiked into bl ank plasma. Acetonitrile (100 µL) was added with the internal standard, followed by centrifugation at 3000 rpm for 10 minutes. Supernatant (50 µL) was then diluted in 300 µL water and analysed with ultra-performance liquid chromatography–tandem mass […]
(§8) Xenograft sample preparation
(§9) Animals were euthanized and tumour samples snap frozen in liquid nitrogen or fixed in formalin and paraffin embedded for subsequent analysis. Tumour pieces were lysed in […]

CTG-0828 NSCLC PDX = assay: PDX efficacy study; assay type: in vivo, mice; settings: olaparib single agent
Description: as §2, §3, §4, §5, §6, §7, §8, §9

CTG-703 ovarian PDX = assay: PDX efficacy study; assay type: in vivo, mice; settings: olaparib single agent
Description: as §2, §3, §4, §5, §6, §7, §8, §9

CTG-0149 H&N PDX = assay: PDX efficacy study; assay type: in vivo, mice; settings: olaparib single agent
Description: as §2, §3, §4, §5, §6, §7, §8, §9

O=C(c1cc(Cc2n[nH]c(=O)c3ccccc23)ccc1F)N1CCN(C(=O)C2CC2)CC1 [olaparib]
greater sensitivity of ATM KO cells compared with isogenic WT cells [1]: > 10 fold | tumour regression (HBCx-17 TNBC PDX): 42% | tumours regressed on day 70 (last day of dosing) (HBCx-17 TNBC PDX): four tumours out of nine | tumours regressed on day 70 (last day of dosing) (HBCx-17 TNBC PDX; listed as Olaparib): 4/9 | TGI (FaDu ATM KO xenografts): 50% | IC50 (FaDu ATM KO cells): ~100 nM | TGI (OV2022 ovarian PDX): 65% | sensitivity of the model to olaparib (CTG-0828 NSCLC PDX): insensitive | TGI (CTG-703 ovarian PDX): 100% | sensitivity of the model to olaparib (CTG-0149 H&N PDX): insensitive
